From the CheMixHub drug solubility set

Test: xn = mol fraction of the nth substance listed, in the solute-free solvent

Nc1cccc2c1CN(C1CCC(=O)NC1=O)C2=O (stereo not given) + CO + CCOC(C)=O
solubility (g/100 g solution)
Details | 273.15 K | 278.15 K | 283.15 K | 288.15 K | 293.15 K | 298.15 K | 303.15 K | 308.15 K | 313.15 K | 318.15 K
x2 = 0.4074 | 0.261 | 0.29 | 0.318 | 0.352 | 0.389 | 0.429 | 0.475 | 0.525 | 0.581 | 0.642
x2 = 0.647 | 0.353 | 0.398 | 0.443 | 0.489 | 0.536 | 0.592 | 0.648 | 0.714 | 0.786 | 0.863
x2 = 0.8048 | 0.354 | 0.393 | 0.437 | 0.491 | 0.546 | 0.608 | 0.679 | 0.76 | 0.852 | 0.952
x2 = 0.9166 | 0.352 | 0.385 | 0.426 | 0.481 | 0.536 | 0.599 | 0.67 | 0.755 | 0.854 | 0.959

CC1=NNC(=O)N(N=Cc2cccnc2)C1 + CN(C)C=O + CC(C)O
solubility (g/100 g solution)
Details | 278.15 K | 283.15 K | 288.15 K | 293.15 K | 298.15 K | 303.15 K | 308.15 K | 313.15 K | 318.15 K
x2 = 0.1705 | 0.264 | 0.304 | 0.352 | 0.405 | 0.466 | 0.532 | 0.612 | 0.697 | 0.796
x2 = 0.354 | 0.455 | 0.512 | 0.588 | 0.68 | 0.777 | 0.896 | 1.02 | 1.15 | 1.3
x2 = 0.5522 | 0.614 | 0.694 | 0.802 | 0.91 | 1.04 | 1.18 | 1.33 | 1.5 | 1.69
x2 = 0.7668 | 0.771 | 0.871 | 0.998 | 1.13 | 1.29 | 1.47 | 1.65 | 1.85 | 2.1

c1ccc2c(c1)CCc1ccccc1N2 + CS(C)=O + O
solubility (g/100 g solution)
Details | x2 = 0.02506 | x2 = 0.0546 | x2 = 0.08995 | x2 = 0.1286 | x2 = 0.1882 | x2 = 0.2567 | x2 = 0.3485 | x2 = 0.4779 | x2 = 0.665
293.15 K | 0.237 | 2.56 | 6.27 | 6.04 | 5.43 | 5.01 | 4.74 | 5.59 | 6.04
298.15 K | 0.323 | 3.31 | 7.85 | 7.49 | 6.85 | 6.32 | 5.77 | 6.8 | 7.23
303.15 K | 0.412 | 4.04 | 9.35 | 8.95 | 8.16 | 7.51 | 6.86 | 8.1 | 8.7
308.15 K | 0.544 | 5.06 | 11.4 | 10.8 | 9.87 | 8.98 | 8.2 | 9.64 | 10.2
313.15 K | 0.69 | 6.11 | 13.3 | 12.7 | 11.6 | 10.5 | 9.62 | 11.2 | 11.7
318.15 K | 0.878 | 7.39 | 15.7 | 14.9 | 13.7 | 12.4 | 11.2 | 12.8 | 13.4
323.15 K | 1.11 | 8.88 | 18.2 | 17.2 | 15.8 | 14.3 | 13 | 14.6 | 15.1
328.15 K | 1.39 | 10.5 | 21 | 19.9 | 18.1 | 16.5 | 14.9 | 16.5 | 17.1

O=C1C=CC(=O)N1c1ccccc1Br + CN1CCCC1=O + O
solubility (g/100 g solution)
Details | 278.15 K | 283.15 K | 288.15 K | 293.15 K | 298.15 K | 303.15 K | 308.15 K | 313.15 K | 318.15 K | 323.15 K
x2 = 0.0198 | 0.759 | 0.975 | 1.23 | 1.5 | 1.9 | 2.31 | 2.81 | 3.43 | 4.09 | 4.91
x2 = 0.04347 | 2.17 | 2.74 | 3.4 | 4.11 | 5.08 | 6.17 | 7.35 | 8.81 | 10.3 | 12.2
x2 = 0.07228 | 4.95 | 6.03 | 7.43 | 8.92 | 10.6 | 12.4 | 14.7 | 17.2 | 19.7 | 22.4
x2 = 0.1081 | 8.04 | 9.64 | 11.7 | 13.7 | 16.3 | 18.8 | 21.8 | 24.8 | 28 | 31.5
x2 = 0.1538 | 12.4 | 14.7 | 17.1 | 20 | 22.9 | 26.2 | 29.7 | 33.3 | 36.9 | 40.5
x2 = 0.2143 | 16.7 | 19.8 | 22.4 | 25.9 | 29.3 | 33.2 | 37 | 40.7 | 44.8 | 48.7
x2 = 0.2979 | 21.5 | 24.7 | 28.1 | 31.6 | 35.2 | 39.1 | 43.5 | 47.2 | 51.2 | 55.1
x2 = 0.421 | 24.7 | 28.2 | 31.9 | 35.7 | 40 | 44.2 | 48.6 | 52.7 | 56.9 | 60.9
x2 = 0.6207 | 26.4 | 29.9 | 34.1 | 38.1 | 42 | 46.6 | 50.6 | 55.1 | 59.5 | 63.9

Nc1ncn(C2OC(CO)C(O)C2O)c(=O)n1 (stereo not given) + O + CCO
solubility (g/100 g solution)
Details | 278.15 K | 283.15 K | 288.15 K | 293.15 K | 298.15 K | 303.15 K | 308.15 K | 313.15 K | 318.15 K
x2 = 0.3899 | 0.0889 | 0.101 | 0.115 | 0.133 | 0.153 | 0.177 | 0.206 | 0.238 | 0.275
x2 = 0.6302 | 0.186 | 0.217 | 0.255 | 0.298 | 0.349 | 0.406 | 0.469 | 0.538 | 0.618
x2 = 0.7932 | 0.302 | 0.369 | 0.443 | 0.524 | 0.614 | 0.709 | 0.813 | 0.924 | 1.05
x2 = 0.9109 | 0.498 | 0.588 | 0.704 | 0.836 | 0.976 | 1.12 | 1.28 | 1.46 | 1.65

Nc1ncn(C2OC(CO)C(O)C2O)c(=O)n1 (stereo not given) + O + CO
solubility (g/100 g solution)
Details | 278.15 K | 283.15 K | 288.15 K | 293.15 K | 298.15 K | 303.15 K | 308.15 K | 313.15 K | 318.15 K
x2 = 0.3077 | 0.0966 | 0.113 | 0.129 | 0.148 | 0.169 | 0.194 | 0.228 | 0.273 | 0.324
x2 = 0.5424 | 0.198 | 0.229 | 0.265 | 0.307 | 0.359 | 0.419 | 0.491 | 0.575 | 0.673
x2 = 0.7273 | 0.335 | 0.397 | 0.463 | 0.542 | 0.632 | 0.742 | 0.869 | 1 | 1.14
x2 = 0.8767 | 0.521 | 0.634 | 0.758 | 0.888 | 1.02 | 1.17 | 1.34 | 1.52 | 1.71

Nc1ncc(Br)nc1Br + CC(O)CO + O
solubility (g/100 g solution)
Details | 278.15 K | 283.15 K | 288.15 K | 293.15 K | 298.15 K | 303.15 K | 308.15 K | 313.15 K | 318.15 K | 323.15 K
x2 = 0.02564 | 0.0095 | 0.0115 | 0.0136 | 0.016 | 0.0185 | 0.0208 | 0.0236 | 0.0266 | 0.0296 | 0.0328
x2 = 0.0559 | 0.0197 | 0.0236 | 0.0277 | 0.0324 | 0.0372 | 0.0418 | 0.0471 | 0.0527 | 0.0583 | 0.0644
x2 = 0.09214 | 0.0333 | 0.0398 | 0.0466 | 0.0542 | 0.0622 | 0.0696 | 0.0781 | 0.0872 | 0.0963 | 0.106
x2 = 0.1364 | 0.0486 | 0.0576 | 0.0678 | 0.0785 | 0.0902 | 0.101 | 0.113 | 0.126 | 0.139 | 0.154
x2 = 0.1915 | 0.0614 | 0.0724 | 0.0858 | 0.0998 | 0.115 | 0.13 | 0.147 | 0.163 | 0.18 | 0.2
x2 = 0.2621 | 0.0735 | 0.0873 | 0.103 | 0.12 | 0.138 | 0.158 | 0.176 | 0.197 | 0.218 | 0.244
x2 = 0.3559 | 0.0818 | 0.0972 | 0.116 | 0.134 | 0.156 | 0.178 | 0.201 | 0.225 | 0.251 | 0.281
x2 = 0.4865 | 0.0875 | 0.105 | 0.125 | 0.146 | 0.17 | 0.196 | 0.219 | 0.246 | 0.276 | 0.307
x2 = 0.6806 | 0.0874 | 0.104 | 0.124 | 0.147 | 0.171 | 0.196 | 0.224 | 0.252 | 0.281 | 0.316
